The supplement of paper PMC10307832

Compound: O=C(/C=C/c1ccccc1)NC(NC(=S)Nc1cccc2cccnc12)C(Cl)(Cl)Cl [Salubrinal] + Nc1ncn([C@H]2C[C@H](O)[C@@H](CO)O2)c(=O)n1 [Decitabine] (partner 2 µM)
Test: relative viability (nuclei count vs DMSO), 5 days (fraction); higher = more cells survive
Conditions: first compound 0.08 µM
How it was run: (§1)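 Dosing by pin tool came one day after lung cancer cell lines were seeded in 1536-well plates, using either one drug or a fixed anchor-drug dose plus five library-drug doses (not always all listed) in √10 steps. After 5 days, nuclei were counted on 4× images. Relative viability is treated-well nuclei count divided by vehicle-well nuclei count, and values are medians of duplicate plates.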

Point of comparison: SK-LU-1, relative viability 0.609. Against it:
- NCI-H2023 — lower, 0.238
- NCI-H1648 — higher, 0.615

Same assay, conditions: first compound 0.253 µM

Point of comparison: A549, relative viability 0.253. Against it:
- NCI-H522 — higher, 1.19
- NCI-H2342 — higher, 0.82
- NCI-H727 — higher, 0.876
- NCI-H1650 — higher, 0.453
- NCI-H1993 — higher, 0.662
- SW 1573 — higher, 0.372
- NCI-H838 — higher, 0.471
- LCLC-103H — higher, 0.696
- NCI-H520 — higher, 0.579
- NCI-H2126 — higher, 0.547
- EMC-BAC-2 — higher, 0.879
- NCI-H2085 — higher, 0.583
- NCI-H1666 — higher, 0.726
- NCI-H596 — higher, 1.02
- LK-2 — higher, 0.306
- NCI-H2087 — higher, 0.266
- NCI-H358 — lower, 0.219
- NCI-H2170 — higher, 0.452
- H3255 — higher, 0.649
- COR-L23 — higher, 0.395
- COR-L 105 — higher, 0.693
- LOU-NH91 — higher, 0.842
- ChaGo-K-1 — higher, 0.523
- SK-MES-1 — higher, 0.359
- SW 900 — higher, 0.466
- NCI-H2009 — higher, 0.396
- NCI-H661 — higher, 0.474
- SK-LU-1 — higher, 0.597
- NCI-H2023 — lower, 0.219
- NCI-H1648 — higher, 0.483

Same assay, conditions: first compound 0.8 µM

Point of comparison: SK-LU-1, relative viability 0.739. Against it:
- NCI-H522 — lower, 0.617
- NCI-H2342 — lower, 0.657
- NCI-H727 — higher, 0.847
- NCI-H1650 — lower, 0.417
- NCI-H1993 — lower, 0.593
- SW 1573 — lower, 0.609
- NCI-H838 — lower, 0.462
- LCLC-103H — lower, 0.718
- NCI-H520 — lower, 0.575
- NCI-H2126 — lower, 0.589
- EMC-BAC-2 — higher, 1.01
- NCI-H2085 — lower, 0.564
- HCC-366 — lower, 0.374
- NCI-H1666 — higher, 0.788
- NCI-H596 — higher, 1.18
- LK-2 — lower, 0.399
- NCI-H2087 — lower, 0.295
- NCI-H358 — lower, 0.234
- NCI-H2170 — lower, 0.496
- H3255 — higher, 0.774
- COR-L23 — lower, 0.451
- COR-L 105 — lower, 0.655
- LOU-NH91 — higher, 0.817
- ChaGo-K-1 — lower, 0.56
- A549 — lower, 0.245
- SK-MES-1 — lower, 0.365
- SW 900 — lower, 0.512
- NCI-H2009 — lower, 0.426
- NCI-H661 — lower, 0.57
- NCI-H2023 — lower, 0.236
- NCI-H1648 — lower, 0.632

Same assay, conditions: first compound 2.53 µM

Point of comparison: NCI-H522, relative viability 0.705. Against it:
- NCI-H2342 — higher, 0.769
- NCI-H727 — higher, 0.837
- NCI-H1650 — lower, 0.476
- SW 1573 — lower, 0.488
- NCI-H838 — lower, 0.417
- LCLC-103H — higher, 0.782
- NCI-H520 — lower, 0.501
- NCI-H2126 — lower, 0.563
- EMC-BAC-2 — higher, 0.991
- NCI-H2085 — lower, 0.508
- HCC-366 — lower, 0.392
- NCI-H1666 — higher, 0.712
- NCI-H596 — higher, 0.969
- LK-2 — lower, 0.385
- NCI-H2087 — lower, 0.277
- NCI-H358 — lower, 0.188
- NCI-H2170 — lower, 0.472
- H3255 — lower, 0.591
- COR-L23 — lower, 0.473
- COR-L 105 — higher, 0.712
- LOU-NH91 — higher, 0.845
- ChaGo-K-1 — lower, 0.523
- A549 — lower, 0.257
- SK-MES-1 — lower, 0.356
- SW 900 — lower, 0.419
- NCI-H2009 — lower, 0.384
- NCI-H661 — lower, 0.474
- SK-LU-1 — lower, 0.685
- NCI-H2023 — lower, 0.246
- NCI-H1648 — lower, 0.493

Same assay, conditions: first compound 8 µM

Point of comparison: NCI-H2342, relative viability 0.595. Against it:
- NCI-H522 — higher, 0.729
- NCI-H727 — higher, 0.825
- NCI-H1650 — lower, 0.455
- NCI-H1993 — lower, 0.59
- SW 1573 — lower, 0.555
- NCI-H838 — lower, 0.464
- LCLC-103H — higher, 0.608
- NCI-H520 — lower, 0.576
- NCI-H2126 — lower, 0.559
- EMC-BAC-2 — higher, 1.05
- NCI-H2085 — higher, 0.643
- HCC-366 — lower, 0.301
- NCI-H1666 — higher, 0.895
- NCI-H596 — higher, 0.863
- LK-2 — lower, 0.266
- NCI-H2087 — lower, 0.257
- NCI-H358 — lower, 0.202
- NCI-H2170 — lower, 0.461
- H3255 — lower, 0.558
- COR-L23 — lower, 0.386
- COR-L 105 — lower, 0.534
- LOU-NH91 — higher, 0.777
- ChaGo-K-1 — lower, 0.467
- A549 — lower, 0.246
- SK-MES-1 — lower, 0.495
- SW 900 — lower, 0.519
- NCI-H2009 — lower, 0.384
- NCI-H661 — lower, 0.536
- SK-LU-1 — lower, 0.506
- NCI-H2023 — lower, 0.221
- NCI-H1648 — lower, 0.366

Compound: Cc1ccc2nc(NCCN)c3ncc(C)n3c2c1 + O=C(c1cc(Cc2n[nH]c(=O)c3ccccc23)ccc1F)N1CCN(C(=O)C2CC2)CC1 [Olaparib] (partner 8 µM)
Test: as above
Conditions: first compound 0.04 µM
How it was run: as §1

Point of comparison: NCI-H520, relative viability 0.308. Against it:
- NCI-H522 — higher, 0.62
- NCI-H2342 — higher, 0.593
- NCI-H727 — higher, 0.561
- NCI-H1650 — higher, 0.647
- EBC-1 — higher, 0.679
- NCI-H1703 — higher, 0.393
- NCI-H1993 — higher, 1.12
- SW 1573 — higher, 0.519
- NCI-H838 — higher, 0.791
- LCLC-103H — higher, 0.752
- NCI-H2126 — higher, 0.924
- EMC-BAC-2 — higher, 0.519
- NCI-H2085 — higher, 0.813
- Calu-6 — higher, 0.574
- HCC-366 — higher, 0.388
- NCI-H1666 — higher, 0.719
- NCI-H596 — higher, 0.77
- LK-2 — higher, 0.707
- NCI-H2087 — higher, 0.671
- NCI-H358 — higher, 0.646
- NCI-H2170 — higher, 0.627
- H3255 — higher, 0.561
- COR-L23 — higher, 0.348
- COR-L 105 — higher, 0.656
- IA-LM — higher, 0.73
- LOU-NH91 — higher, 0.921
- ChaGo-K-1 — higher, 0.411
- A549 — higher, 0.409
- SK-MES-1 — higher, 0.716
- NCI-H2009 — higher, 0.666
- NCI-H661 — higher, 0.78
